One may read the inhibition as the relative decrease from the control value, in per cent. Usually Ki stands for the equilibrium dissociation constant of an inhibitor or competing ligand from its target.

Experiment [1] concerns the target T1, rat adrenergic α1B receptor (Rattus norvegicus, UniProt P15823).
T1 construct: rat adrenergic α1B receptor obtained from Wistar Rat liver; from tissue; host or cells: Wistar rat liver
T1 sequence (P15823 1-515): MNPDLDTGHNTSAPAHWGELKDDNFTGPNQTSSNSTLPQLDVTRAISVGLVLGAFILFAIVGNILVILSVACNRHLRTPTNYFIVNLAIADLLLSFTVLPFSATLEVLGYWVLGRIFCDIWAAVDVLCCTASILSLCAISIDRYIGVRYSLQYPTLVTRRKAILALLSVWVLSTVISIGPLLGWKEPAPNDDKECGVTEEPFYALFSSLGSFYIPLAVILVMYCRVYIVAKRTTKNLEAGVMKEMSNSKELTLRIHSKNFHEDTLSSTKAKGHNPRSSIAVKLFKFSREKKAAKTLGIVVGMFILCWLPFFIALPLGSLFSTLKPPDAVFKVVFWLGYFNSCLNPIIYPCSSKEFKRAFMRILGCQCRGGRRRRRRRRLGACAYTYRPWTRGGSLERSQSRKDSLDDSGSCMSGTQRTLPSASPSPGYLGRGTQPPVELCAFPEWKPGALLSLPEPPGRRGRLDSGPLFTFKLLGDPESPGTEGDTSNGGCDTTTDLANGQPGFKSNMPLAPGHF
Nature of the experiment: Radioligand binding, adrenergic α1B ([3H]Prazosin). Particulars: [3H]Prazosin, repeat datapoints each shown; for inhibition at 0.1 µM: read-out: Percentage inhibition of ligand binding, Adrenergic α1B (0.1 μM), compound at 0.1 μM; for inhibition at 0.03 µM: read-out: Percentage inhibition of ligand binding, Adrenergic α1B (0.03 μM), compound at 0.03 μM. Put shortly:
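Specific binding, taken as total minus that remaining with 10 μM phentolamine, is measured after filtration and counting. Rat liver receptor preparation and 0.25 nM [3H]prazosin are incubated with compound in 50 mM Tris-HCl (pH 7.4, 0.5 mM EDTA) at 25° C for 60 min. Activity is reported as percent inhibition.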

Experiment [2] has as its target T2, human recombinant adrenergic α2A receptor (Homo sapiens, UniProt P08913).
T2 construct: expressed in transfected cells; host or cells: insect Sf9 cells
T2 sequence (P08913 1-465): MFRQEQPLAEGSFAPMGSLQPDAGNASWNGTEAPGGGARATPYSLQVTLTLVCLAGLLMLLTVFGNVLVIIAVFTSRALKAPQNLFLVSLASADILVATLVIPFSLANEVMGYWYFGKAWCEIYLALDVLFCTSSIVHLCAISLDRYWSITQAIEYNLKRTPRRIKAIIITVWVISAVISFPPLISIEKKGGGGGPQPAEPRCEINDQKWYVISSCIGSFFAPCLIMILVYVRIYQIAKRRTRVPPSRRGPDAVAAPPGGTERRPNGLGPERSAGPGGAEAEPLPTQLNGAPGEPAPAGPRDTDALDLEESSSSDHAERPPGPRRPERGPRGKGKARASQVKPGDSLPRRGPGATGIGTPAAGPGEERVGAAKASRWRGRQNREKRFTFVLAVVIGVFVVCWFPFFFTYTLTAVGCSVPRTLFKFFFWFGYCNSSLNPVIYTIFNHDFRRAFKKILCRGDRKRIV
Nature of the experiment: Radioligand binding, adrenergic α2A ([3H]MK-912). As to conditions: for inhibition at 0.03 µM: read-out: Percentage inhibition of ligand binding, Adrenergic α2A (0.03 μM), compound at 0.03 μM; for inhibition at 0.1 µM: read-out: Percentage inhibition of ligand binding, Adrenergic α2A (0.1 μM), compound at 0.1 μM. Put shortly: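 Receptor expressed in Sf9 cells, in 50 mM Tris-HCl pH 7.4, 12.5 mM MgCl2, 2 mM EDTA; compounds incubated with 1 nM [3H]MK-912 for 60 min at 25 °C.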

The target of experiment [3] is T3, human recombinant adrenergic α2B receptor (Homo sapiens, UniProt P18089).
T3 construct: expressed in transfected cells; host or cells: CHO-K1
T3 sequence (P18089 1-450): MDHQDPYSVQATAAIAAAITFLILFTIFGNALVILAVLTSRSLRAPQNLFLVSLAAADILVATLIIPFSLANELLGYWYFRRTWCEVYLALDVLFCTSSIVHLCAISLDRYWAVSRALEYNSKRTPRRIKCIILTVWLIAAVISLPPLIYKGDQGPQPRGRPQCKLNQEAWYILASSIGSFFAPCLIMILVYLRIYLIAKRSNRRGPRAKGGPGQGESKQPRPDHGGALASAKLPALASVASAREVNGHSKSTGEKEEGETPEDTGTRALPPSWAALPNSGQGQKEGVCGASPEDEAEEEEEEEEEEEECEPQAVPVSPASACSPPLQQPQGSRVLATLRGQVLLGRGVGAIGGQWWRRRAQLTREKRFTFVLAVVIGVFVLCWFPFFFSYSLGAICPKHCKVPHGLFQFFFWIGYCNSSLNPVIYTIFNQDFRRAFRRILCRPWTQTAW
Nature of the experiment: Radioligand binding, adrenergic α2B ([3H]Rauwolscine). Particulars: for inhibition at 0.1 µM: read-out: Percentage inhibition of ligand binding, Adrenergic α2B (0.1 μM), compound at 0.1 μM; for inhibition at 0.03 µM: read-out: Percentage inhibition of ligand binding, Adrenergic α2B (0.03 μM), compound at 0.03 μM. The method, boiled down: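 Values are percent inhibition of specific radioligand binding. The receptor, expressed in CHO-K1 cells, was exposed to 2.5 nM [3H]Rauwolscine at 25° C for 60 min, with 10 μM Prazosin marking non-specific binding.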

The target of experiment [4] is T4, human recombinant adrenergic α1D receptor (Homo sapiens, UniProt P25100).
T4 construct: expressed in transfected cells; host or cells: HEK-293
T4 sequence (P25100 1-572): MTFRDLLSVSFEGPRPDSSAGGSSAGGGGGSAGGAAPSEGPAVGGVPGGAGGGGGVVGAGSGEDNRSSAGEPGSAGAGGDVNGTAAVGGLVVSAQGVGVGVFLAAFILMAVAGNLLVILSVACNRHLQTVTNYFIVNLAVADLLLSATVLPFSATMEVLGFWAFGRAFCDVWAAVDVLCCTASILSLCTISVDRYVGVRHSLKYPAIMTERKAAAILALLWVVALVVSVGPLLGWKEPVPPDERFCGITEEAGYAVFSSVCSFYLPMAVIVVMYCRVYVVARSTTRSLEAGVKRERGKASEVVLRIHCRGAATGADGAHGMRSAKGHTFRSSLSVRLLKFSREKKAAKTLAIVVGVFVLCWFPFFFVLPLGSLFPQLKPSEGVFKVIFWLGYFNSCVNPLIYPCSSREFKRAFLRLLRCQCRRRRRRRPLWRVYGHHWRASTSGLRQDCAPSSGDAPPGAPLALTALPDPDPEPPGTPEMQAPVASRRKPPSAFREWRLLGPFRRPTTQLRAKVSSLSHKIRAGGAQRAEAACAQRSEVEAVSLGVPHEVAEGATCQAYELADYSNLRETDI
Nature of the experiment: Radioligand binding, adrenergic α1D ([3H]Prazosin). As to conditions: [3H]Prazosin, repeat datapoints each shown; for inhibition at 0.1 µM: read-out: Percentage inhibition of ligand binding, Adrenergic α1D (0.1 μM), compound at 0.1 μM; for inhibition at 0.03 µM: read-out: Percentage inhibition of ligand binding, Adrenergic α1D (0.03 μM), compound at 0.03 μM. As to the method: Compounds were incubated with 0.6 nM [3H]Prazosin for 60 min at 25° C. Non-specific binding was estimated in the presence of 10 μM phentolamine. Receptor proteins were filtered and washed, the filters were then counted to determine [3H]Prazosin specifically bound. […] Biochemical assay results are presented as the percent inhibition of specific binding in Table B1.

[5] abbreviates: [3H]MK-912, repeat datapoints each shown.
[6] abbreviates: [3H]Rauwolscine, repeat datapoints each shown.

Molecules are shown by their SMILES. Several values for one entry are separate records, joined by “and”; a condition that tells them apart may be missing. Equal entries are not always repeated.

As for `C/C(=C\n1c2c(c3cc(C)cc(C)c31)CN(C)CC2)c1ccc(C)nc1` [compound 188], the inhibition at 0.1 µM in experiment [1] was 60%; in experiment [3] (setting [6]), 105%; in experiment [4], 48%. Further, in experiment [2] (compound at 0.1 μM, [3H]MK-912, repeat datapoints each shown, 0.1 µM), the “Percentage inhibition of ligand binding, Adrenergic α2A (0.1 μM)” value was 66% and 90%. Further, the inhibition at 0.03 µM in experiment [2] (setting [5]) came out at 35%.

As to `C/C(=C\n1c2c(c3cc(C)ccc31)C1CCCN1CC2)c1ccc(C)nc1` (stereo not shown) [compound 193, 10-methyl-7-(2-(6-methylpyridin-3-yl)prop-1-enyl)-2,3,5,6,7,11c-hexahydro-1H-indolizino[7,8-b]indole], the inhibition at 0.1 µM in experiment [1] came out at 93%; in experiment [2] (setting [5]), 77%; in experiment [3] (setting [6]) it was 103%; in experiment [4], 88%.

In the case of `Cc1ccc2c(c1)c1c(n2CCc2ccc(F)cc2)CCN(C)C1` [compound 206], the inhibition at 0.03 µM in experiment [1] was 46%; in experiment [4] it was 42%. Besides, the inhibition constant Ki in experiment [2] is 1.12 nM and 6.79 nM. The inhibition at 0.1 µM in experiment [2] (setting [5]) was 86%; in experiment [3] (setting [6]), 102%.

For `CN1CCc2c(c3cc(Cl)ccc3n2CCc2ccccc2)C1` [compound 207], the inhibition at 0.03 µM in experiment [1] stood at 49%; in experiment [4] it was 39%. For the same compound, the inhibition constant Ki in experiment [2] worked out at 1.16 nM. The inhibition at 0.1 µM in experiment [2] (setting [5]) was 90%; in experiment [3] (setting [6]), 106%.

Consider `Cc1ccc(CCn2c3c(c4cc(Cl)ccc42)CN(C)CC3)cc1` [compound 208], for which the inhibition at 0.03 µM came out at 60% in experiment [1] and 41% in experiment [4]. The inhibition at 0.1 µM worked out at 101% in experiment [2] (setting [5]) and 97% in experiment [3] (setting [6]).

In the case of `CN1CCc2c(c3cc(Cl)ccc3n2CCc2ccc(Cl)cc2)C1` [compound 213], the inhibition at 0.03 µM in experiment [1] came to 53%; in experiment [3] (setting [6]), 26%; in experiment [4] it was 53%. Besides, the inhibition at 0.1 µM in experiment [2] (setting [5]) was determined as 98%. In addition, the “Percentage inhibition of ligand binding, Adrenergic α2B (0.1 μM)” value in experiment [3] (compound at 0.1 μM, [3H]Rauwolscine, repeat datapoints each shown, 0.1 µM) was 68% and 97%. For the same compound, the Ki in experiment [3] (read-out: Ki α2B) worked out at 26.3 nM.

As for `COc1ccc(CCn2c3c(c4cc(C)ccc42)CN(C)CC3)cc1` [compound 218], the inhibition at 0.03 µM in experiment [1] was 79%; in experiment [2] (setting [5]), 85%; in experiment [3] (setting [6]), 110%; in experiment [4], 60%.

Turning to `CN1CCc2c(n(CC(C)(O)c3ccc(F)cc3)c3ccc(Cl)cc23)CC1` (stereo not shown) [compound 221], the inhibition at 0.1 µM in experiment [1] is 65%; in experiment [2] (setting [5]) it was 56%; in experiment [3] (setting [6]), 80%; in experiment [4] it was 16%.

In the case of `COc1ccc(/C(C)=C/n2c3c(c4cc(C)ccc42)CCN(C)CC3)c(F)c1` [compound 222], the inhibition at 0.1 µM in experiment [1] came out at 95%; in experiment [2] (setting [5]), 96%; in experiment [3] (setting [6]), 104%; in experiment [4] it was 101%.

As for `C/C(=C\n1c2c(c3cc(C)ccc31)CCN(C)C2)c1ccc(Cl)cc1` [compound 224], the inhibition at 0.1 µM in experiment [1] was 70%; in experiment [2] (setting [5]), 52%; in experiment [3] (setting [6]), 69%; in experiment [4], 26%.

For the compound `C/C(=C\n1c2c(c3cc(C)ccc31)C1CCC(C2)N1C)c1ccc(Cl)cc1Cl` (stereo not shown) [compound 225], the inhibition at 0.1 µM stood at 27% in experiment [1], 75% in experiment [2] (setting [5]), 80% in experiment [3] (setting [6]) and 12% in experiment [4].

Take `C/C(=C/n1c2c(c3cc(C)ccc31)CCN(C)CC2)c1ccc(Cl)cc1Cl` [compound 226]: the inhibition at 0.1 µM in experiment [1] worked out at 88%; in experiment [2] (setting [5]) it was 85%; in experiment [3] (setting [6]) it was 83%; in experiment [4] it was 48%.

For `C/C(=C\n1c2c(c3cc(C)ccc31)CCN(C)CC2)c1ccc(Cl)cc1Cl` [compound 227], the inhibition at 0.1 µM is 21% in experiment [1], 66% in experiment [2] (setting [5]), 98% in experiment [3] (setting [6]) and -2% in experiment [4].

`C/C(=C/n1c2c(c3cc(Cl)ccc31)CCN(C)CC2)c1ccc(Cl)cc1Cl` [compound 228]: the inhibition at 0.1 µM in experiment [1] was 64%; in experiment [2] (setting [5]), 77%; in experiment [3] (setting [6]), 42%; in experiment [4], 19%.

As to `C/C(=C\n1c2c(c3cc(Cl)ccc31)CCN(C)CC2)c1ccc(Cl)cc1Cl` [compound 229], the inhibition at 0.1 µM in experiment [1] amounted to 17%; in experiment [2] (setting [5]), 53%; in experiment [3] (setting [6]) it was 90%; in experiment [4], 8%.

For the compound `C/C(=C/n1c2c(c3cc(C)ccc31)CCN(C)CC2)c1ccccc1F` [compound 230], the inhibition at 0.1 µM in experiment [1] came out at 94%; in experiment [2] (setting [5]), 87%; in experiment [3] (setting [6]) it was 93%; in experiment [4], 58%.

On to `C/C(=C\n1c2c(c3cc(C)ccc31)C1CCC(C2)N1C)c1ccccc1F` (stereo not shown) [compound 231], for which the inhibition at 0.1 µM in experiment [1] came to 48%; in experiment [2] (setting [5]) it was 65%; in experiment [3] (setting [6]), 87%; in experiment [4], 26%.

The values are drawn from patent US8791132B2, “Compounds and methods for treatment of hypertension” (Medivation Technologies, Inc., priority 2011, dated 2014).
